Tests used:
Format in all cases: cell-based
[1] = system: K12PE cell line; assay: Proliferation assay; conditions: for Synergy analysis (Calcusyn) of combination with JQ1 on proliferation: K12PE cells, in combination with JQ1
Experimental: (§1) Proliferation and viability assays: Cell growth curves were determined by monitoring the viability of cells with Trypan blue exclusion on a Vi-Cell-XR (Becton Dickinson, Franklin Lakes, N.J., USA). Proliferation assays were performed in triplicate at least three times (n=3) using (3H)-thymidine incorporation. All data were plotted and analyzed using GraphPad Prism 7 (GraphPad Software, La Jolla, Calif., USA) software, represented as the mean with an error determined as ±s.d.
as §1, with “assay.” for “assays:”, “Cell lines” for “Proliferation assays”, “plated” for “performed”, “in 96-well round-bottom plates with the indicated drug concentrations or knockdown cells. […]” for “at least three times (n=3) using (3H)-thymidine incorporation.”

[2] = system: AMO1 cells; assay: Apoptosis by Annexin V and Topro staining; conditions: AMO-1 cells
Experimental: (§2) Flow cytometry: Annexin-V Alexa Fluor 488-conjugated antibody (Thermo Scientific, Waltham, Mass., USA) and To-Pro-3 (Thermo Scientific, Waltham, Mass., USA) were used according to the manufacturer's protocol and processed using Flow Jo software for at least three independent experiments. For cell cycle analysis, cells were stained with Propidium Iodide (PI) staining kit (Abcam, Cambridge, Mass., USA) and analysis was performed on Flow Jo V10 software. Staining of mitotic marker pHH3-Ser^10 was also performed by pHH3-Ser^10 and PI dual staining.
(§3) The PLK1 inhibitor BI2536 and Compound 5 were tested for their activity as individual agents and in combination in AMO1 parental and AMO1-PR cell lines. […] Changes in apoptosis were analyzed using the single agent treatments and their combination using Annexin V and Topro staining. […] Changes in Ikaros and pro-survival signaling in these cell lines was analyzed in response to BI2536 and Compound 5 after 24 and 72 hours of treatment (FIG. 5K).

[3] = system: AMO1-PR cells; assay: Apoptosis by Annexin V and Topro staining
Experimental: as §2, §3

[4] = system: AMO1 cell line; assay: Proliferation assay; conditions: AMO1; for Synergy with trametinib on proliferation: in combination with trametinib
Experimental: as §1
as §1, with “assay.” for “assays:”, “Cell lines” for “Proliferation assays”, “plated” for “performed”, “in 96-well round-bottom plates with the indicated drug concentrations or knockdown cells. […]” for “at least three times (n=3) using (3H)-thymidine incorporation.”

[5] = system: K12PE-PR cell line; assay: Proliferation assay; conditions: Pom resistant K12PE-PR; in combination with JQ1
Experimental: as §1
as §1, with “assay.” for “assays:”, “Cell lines” for “Proliferation assays”, “plated” for “performed”, “in 96-well round-bottom plates with the indicated drug concentrations or knockdown cells. […]” for “at least three times (n=3) using (3H)-thymidine incorporation.”

[6] = system: AMO1-PR (pomalidomide resistant) cell line; assay: Proliferation assay; conditions: for Synergy with trametinib on proliferation: in combination with trametinib
Experimental: as §1
as §1, with “assay.” for “assays:”, “Cell lines” for “Proliferation assays”, “plated” for “performed”, “in 96-well round-bottom plates with the indicated drug concentrations or knockdown cells. […]” for “at least three times (n=3) using (3H)-thymidine incorporation.”

[7] = system: AMO1 control shRNA cells; assay: Proliferation assay in control shRNA cells; conditions: Homo sapiens, AMO1, read-out: IC50, proliferation
Experimental: (§4) Proliferation and viability assay. Cell growth curves were determined by monitoring the viability of cells with Trypan blue exclusion on a Vi-Cell-XR (Becton Dickinson, Franklin Lakes, N.J., USA). Cell lines were plated in triplicate in 96-well round-bottom plates with the indicated drug concentrations or knockdown cells. Proliferation assays were performed in triplicate at least three times (n=3) using either the WST-1 tetrazolium salt (Roche Applied Science) reagent used according to the manufacturer's specifications or by (3H)-thymidine incorporation as previously described (Bjorklund et al., Blood Cancer Journal 5, e354, 2015). All data were plotted and analyzed using GraphPad Prism 7 (GraphPad Software, La Jolla, Calif., USA) software, represented as the mean with an error determined as ±s.d.
(§5) To further confirm the synergistic effect, shRNA knockdown was combined with either Compound 5 or Compound 6 treatment. Expression of control and NEK2 shRNA in AMO1 cell lines was induced, followed by exposure of the cells to increasing concentrations of Compound 5 and Compound 6. The results were measured through a proliferation assay.

[8] = system: AMO1 NEK2 shRNA (NEK2 knocked-down) cells; assay: Proliferation assay in NEK2 knocked-down cells
Experimental: as §4, §5

CC[C@@H]1C(=O)N(C)c2cnc(Nc3ccc(C(=O)NC4CCN(C)CC4)cc3OC)nc2N1C1CCCC1 [BI2536, (R)-4-((8-cyclopentyl-7-ethyl-5-methyl-6-oxo-5,6,7,8-tetrahydropteridin-2-yl)amino)-3-methoxy-N-(1-methylpiperidin-4-yl)benzamide]
Activity in biallelic P53 cell line compared to P53-wild type cells ([1]; K12PE vs AMO1, FIG. 7B): higher activity
late apoptosis ([2]; vehicle 2.24%): 4.25%
early apoptosis ([2]; vehicle 2.69%): 10.9%
late apoptosis ([3]; vehicle 2.77%): 7.55%
early apoptosis ([3]; vehicle 3.82%): 23.2%

Nc1cccc2c1CN(C1CCC(=O)NC1=O)C2=O (centres unmarked) [Compound 2, 3-(4-amino-1-oxo-1,3 dihydro-isoindol-2-yl)-piperidine-2,6-dione]
Synergy with trametinib on proliferation [4]: strong synergy
Synergy of combination with JQ1 on proliferation [5]: synergistically decreased proliferation
Synergy with trametinib on proliferation [6]: strong synergy
Synergy analysis (Calcusyn) of combination with JQ1 on proliferation [1]: synergistic

N#Cc1ccc(N2CCN(Cc3ccc(COc4cccc5c4CN([C@H]4CCC(=O)NC4=O)C5=O)cc3)CC2)c(F)c1 [Compound 6, (S)-4-(4-(4-(((2-(2,6-dioxopiperidin-3-yl)-1-oxoisoindolin-4-yl)oxy)methyl)benzyl)piperazin-1-yl)-3-fluorobenzonitrile]
IC50 [7]: 29.6 nM
Synergy (Calcusyn) with NEK2 inhibitors (JH295 and rac-CCT 250863) on proliferation ([4]; NEK2 inhibitor 0.016-10 μM): strong synergy
Combination analysis (Calcusyn) with YM155 on proliferation ([4]; in combination with YM155): synergistic activity
Synergy with trametinib on proliferation [4]: strong synergy
Synergy of combination with JQ1 on proliferation [5]: synergistically decreased proliferation
Synergy (Calcusyn) with NEK2 inhibitors (JH295 and rac-CCT 250863) on proliferation ([6]; NEK2 inhibitor 0.016-10 μM): strong synergy
Combination analysis (Calcusyn) with YM155 on proliferation ([6]; in combination with YM155): synergistic activity
Synergy with trametinib on proliferation [6]: strong synergy
Synergy analysis (Calcusyn) of combination with JQ1 on proliferation [1]: synergistic
IC50 ([8]; Homo sapiens, NEK2 knocked-down AMO1 cells): 2.89 nM
Increase of activity by NEK2 knockdown in comparison to control shRNA cell line ([8]; IC50 control cells vs NEK2 knocked-down cells): 10 fold

— patent US20230255975A1, “METHODS FOR TREATING CANCER WITH COMBINATION THERAPIES” (Celgene Corporation, priority 2020, published 2023)
